Some test systems named below: HCT-15; NCI-H23; MOLT-4; UO-31; MCF7; RPMI-8226; OVCAR-3; SR; U-251; DU-145; KM12; UACC-257; BT-549; RXF 393; MDA-MB-435; MDA-N; UACC-62; CCRF-CEM; A549.
Holding throughout (assay): NCI anticancer screen, dose series, 48 h

The results in this text go back to ChEMBL document CHEMBL1201862, “PubChem BioAssay data set” (2004).

Each structure is given as a SMILES string.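 Briefly, cells in 96-well plates were exposed to five compound concentrations for 48 h, and endpoints were estimated by linear interpolation. The concentration for 50% growth inhibition is given as GI50.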 Activity calls are given as the source filed them. No stated cut-off is given here; in the data, active = GI50 up to about 1.1 µM and inactive = higher.

Take `Brc1ccc(/N=N/N2CCCCC2)cc1`: the GI50 is 27.5 µM with HCT-15; 62.1 µM (inactive) with NCI-H23; 19.9 µM (inactive) with MOLT-4; 60 µM (inactive) in the experiment on UO-31; 35.5 µM (inactive) with MCF7; 14.1 µM (inactive) with RPMI-8226. For the same molecule, the GI50 with OVCAR-3 is 42.1 µM (inactive); in the experiment with SR, 16.6 µM (inactive); in the experiment with U-251, 54 µM (inactive); in the experiment with DU-145 it was > 100 µM (inactive); in the experiment on KM12, 27 µM (inactive); in the experiment on UACC-257 it was 49.3 µM (inactive). Further, the GI50 with BT-549 was 98.2 µM (inactive); in the experiment with RXF 393 it was 38.3 µM (inactive); with MDA-MB-435, 34.3 µM (inactive); in the experiment on MDA-N, 57.3 µM (inactive); in the experiment on UACC-62 it was 72.9 µM (inactive); with CCRF-CEM, 22.2 µM (inactive).
Take `COc1ccc2nc3cccc([N+](=O)[O-])c3c(NCCO)c2c1`: the GI50 in the experiment with HCT-15 is 0.00594 µM; with A549, 0.0198 µM (active); in the experiment with NCI-H23, 0.0219 µM (active); with MOLT-4, 0.0255 µM (active); in the experiment on UO-31 it was 0.0218 µM (active); in the experiment on MCF7, 0.018 µM (active). Moreover, the GI50 with RPMI-8226 is 0.00235 µM (active); with OVCAR-3 it was 0.0149 µM (active); with SR, 0.001 µM (active); in the experiment with U-251 it was 0.0211 µM (active); in the experiment with DU-145, 0.011 µM (active); with KM12, 0.0255 µM (active). Further, the GI50 is 0.0277 µM (active) in the experiment with UACC-257; 0.00565 µM (active) with BT-549; 0.0126 µM (active) in the experiment on RXF 393; 0.00656 µM (active) in the experiment with MDA-MB-435; 0.00895 µM (active) with MDA-N; 0.0182 µM (active) in the experiment with UACC-62. In addition, in the experiment with CCRF-CEM, the GI50 was 0.0479 µM (active).
For `CCOC(=O)COc1cc(-c2ccccc2F)nc2cc3c(cc12)OCO3`, the GI50 was 39.9 µM with HCT-15; > 100 µM (inactive) in the experiment with A549; > 100 µM (inactive) in the experiment with NCI-H23; 27.8 µM (inactive) in the experiment on MOLT-4; > 100 µM (inactive) in the experiment on MCF7; 42 µM (inactive) in the experiment with RPMI-8226. Besides, the GI50 was > 10 µM (inactive) in the experiment with OVCAR-3; > 10 µM (inactive) in the experiment on SR; 93.5 µM (inactive) with U-251; > 100 µM (inactive) with DU-145; > 100 µM (inactive) with KM12; > 100 µM (inactive) in the experiment on UACC-257. Also, the GI50 was > 100 µM (inactive) in the experiment with BT-549; > 100 µM (inactive) in the experiment on RXF 393; > 100 µM (inactive) in the experiment on MDA-MB-435; > 100 µM (inactive) in the experiment with MDA-N; > 100 µM (inactive) in the experiment on UACC-62; 23.2 µM (inactive) with CCRF-CEM.
As for `CC(C)=CC[S+]([O-])c1ccccc1NC1=CC(=O)CC(C)(C)C1` (configuration not stated), the GI50 with HCT-15 is 8.3 µM; in the experiment on A549, > 100 µM (inactive); in the experiment with NCI-H23, > 100 µM (inactive); in the experiment on MOLT-4 it was > 100 µM (inactive); with UO-31, > 100 µM (inactive); with MCF7, > 100 µM (inactive). For the same molecule, the GI50 with RPMI-8226 was > 100 µM (inactive); in the experiment on OVCAR-3, > 100 µM (inactive); in the experiment on SR, > 100 µM (inactive); in the experiment with U-251, 0.223 µM (active); in the experiment on DU-145, > 100 µM (inactive); in the experiment on KM12, > 100 µM (inactive). Besides, the GI50 in the experiment on UACC-257, with BT-549, in the experiment on RXF 393, in the experiment with MDA-MB-435, with MDA-N and in the experiment on UACC-62 was > 100 µM (inactive) in each case. In the experiment on CCRF-CEM, the GI50 was > 100 µM (inactive).
Turning to `O=C1NC2(CCNCC2)Oc2ccccc21`, the GI50 in the experiment on HCT-15 was greater than 100 µM; in the experiment with A549 it was > 100 µM (inactive); with NCI-H23, > 100 µM (inactive); in the experiment on MOLT-4, > 100 µM (inactive); with UO-31, > 100 µM (inactive); with MCF7, > 100 µM (inactive). Moreover, the GI50 in the experiment with RPMI-8226, in the experiment with OVCAR-3, in the experiment on SR, in the experiment with U-251, in the experiment with DU-145 and in the experiment with KM12 was > 100 µM (inactive) each time. In addition, the GI50 with UACC-257 was > 100 µM (inactive); in the experiment with BT-549 it was > 100 µM (inactive); in the experiment on RXF 393, 64.1 µM (inactive); in the experiment with MDA-MB-435, > 100 µM (inactive); with MDA-N, > 100 µM (inactive); in the experiment with UACC-62, > 100 µM (inactive). The GI50 in the experiment with CCRF-CEM is > 100 µM (inactive).
For `CC1OC(O)CC(N(C)C)C1O.CC1OC(O)CCC1O.CCC1CC(O)c2c(O)c3c(c(O)c2C1O)C(=O)c1cccc(O)c1C3=O` (configuration not stated), the GI50 was 0.0381 µM in the experiment on HCT-15; 0.0313 µM (active) in the experiment with A549; 0.0301 µM (active) in the experiment on NCI-H23; 0.0284 µM (active) with MOLT-4; 0.0114 µM (active) with UO-31; 0.0325 µM (active) in the experiment with MCF7. In addition, the GI50 in the experiment on RPMI-8226 was 0.0208 µM (active); with OVCAR-3, 0.021 µM (active); in the experiment on SR, 0.0083 µM (active); in the experiment on U-251, 0.0211 µM (active); with DU-145, 0.0333 µM (active); in the experiment with KM12, 0.0209 µM (active). For the same molecule, the GI50 in the experiment with UACC-257 was 0.0342 µM (active); in the experiment with BT-549, 0.0448 µM (active); with RXF 393 it was 0.0039 µM (active); in the experiment with MDA-MB-435, 0.023 µM (active); in the experiment with MDA-N it was 0.0284 µM (active); in the experiment with UACC-62, 0.0197 µM (active). Moreover, the GI50 in the experiment on CCRF-CEM is 0.0223 µM (active).
`CCOC(=O)c1ccc(/N=C2\SC(=S)N(c3ccc(F)cc3)\C2=N/c2ccc(C(=O)OCC)cc2)cc1`: the GI50 was 4.29 µM in the experiment on HCT-15; 41 µM (inactive) in the experiment with A549; 17.8 µM (inactive) with NCI-H23; 3.68 µM (inactive) in the experiment with MOLT-4; 10.8 µM (inactive) in the experiment on UO-31; 18.8 µM (inactive) in the experiment on MCF7. Further, the GI50 is 9.42 µM (inactive) in the experiment on RPMI-8226; 20 µM (inactive) in the experiment with OVCAR-3; 2.2 µM (inactive) in the experiment on SR; 20.6 µM (inactive) in the experiment with U-251; 39.2 µM (inactive) with DU-145; 24.8 µM (inactive) with KM12. Moreover, the GI50 with UACC-257 is 15.2 µM (inactive); with BT-549 it was 12.6 µM (inactive); in the experiment with RXF 393 it was 9.68 µM (inactive); in the experiment with MDA-MB-435, 17.9 µM (inactive); in the experiment with MDA-N it was 12.9 µM (inactive); in the experiment on UACC-62 it was 8.07 µM (inactive). Besides, the GI50 in the experiment on CCRF-CEM was 6.95 µM (inactive).
Turning to `Cc1ccc(C)c(C2NC(=O)c3ccccc3N2)c1` (configuration not stated), the GI50 is 0.515 µM in the experiment with HCT-15; 1.79 µM (inactive) in the experiment on A549; 6.04 µM (inactive) in the experiment with NCI-H23; 0.506 µM (active) in the experiment with MOLT-4; 7.71 µM (inactive) with UO-31; 0.454 µM (active) in the experiment on MCF7. Besides, the GI50 was 2.11 µM (inactive) in the experiment with RPMI-8226; 0.265 µM (active) with OVCAR-3; 0.555 µM (active) in the experiment with SR; 1.21 µM (inactive) in the experiment on U-251; 2.56 µM (inactive) in the experiment on DU-145; 2.99 µM (inactive) with KM12. For the same molecule, the GI50 was 12 µM (inactive) in the experiment with UACC-257; 5.25 µM (inactive) with BT-549; 1.95 µM (inactive) in the experiment on RXF 393; 0.0792 µM (active) in the experiment on MDA-MB-435; 0.0986 µM (active) with MDA-N; 1.31 µM (inactive) with UACC-62. Moreover, in the experiment with CCRF-CEM, the GI50 is 0.753 µM (active).
Consider `CC1CC2=C(C1)C(C1(C)C(=O)CC3C(C1=O)C3(C)C)C(C)C2=O` (configuration not stated), for which the GI50 with HCT-15 is greater than 100 µM; in the experiment with A549, > 100 µM (inactive); with NCI-H23, > 100 µM (inactive); in the experiment with MOLT-4, 62.7 µM (inactive); with UO-31 it was 99.5 µM (inactive); with MCF7, > 100 µM (inactive). The GI50 with RPMI-8226, with OVCAR-3, in the experiment on SR, with U-251, with DU-145 and with KM12 was > 100 µM (inactive) each time. Further, the GI50 with UACC-257, with BT-549, in the experiment on RXF 393, in the experiment on MDA-MB-435, with MDA-N and in the experiment on UACC-62 was > 100 µM (inactive) each time. Besides, in the experiment with CCRF-CEM, the GI50 was > 100 µM (inactive).
Regarding `CCN(CC)CCCNc1n[n+]([O-])c2ccccc2[n+]1[O-]`, the GI50 in the experiment on HCT-15 is 2.5 µM; in the experiment with A549 it was 12.6 µM (inactive); in the experiment with NCI-H23, 11.6 µM (inactive); in the experiment with MOLT-4, 2.73 µM (inactive); with UO-31, 28.6 µM (inactive); in the experiment with MCF7, 3.92 µM (inactive). Also, the GI50 in the experiment on RPMI-8226 was 4.21 µM (inactive); with OVCAR-3 it was > 10 µM (inactive); in the experiment on SR it was 13.7 µM (inactive); in the experiment on U-251 it was 18.5 µM (inactive); in the experiment with DU-145, 18.4 µM (inactive); in the experiment with KM12 it was 15 µM (inactive). Besides, the GI50 is 14.2 µM (inactive) with UACC-257; 17.3 µM (inactive) in the experiment with BT-549; 13 µM (inactive) in the experiment with RXF 393; 38.4 µM (inactive) in the experiment on MDA-MB-435; 11.9 µM (inactive) in the experiment with MDA-N; 8.43 µM (inactive) in the experiment on UACC-62. Further, the GI50 with CCRF-CEM was 14.2 µM (inactive).
For `CC1=C(C(=O)Nc2ccccc2)C2(CCCCC2)C(C#N)=C(SCC(=O)Nc2ccc(Br)cc2)N1`, the GI50 in the experiment on HCT-15 is 4.23 µM; in the experiment with A549 it was 3.77 µM (inactive); with NCI-H23, 4.1 µM (inactive); in the experiment on MOLT-4, 2.82 µM (inactive); in the experiment with UO-31, 1.39 µM (inactive); with MCF7 it was 4.51 µM (inactive). For the same molecule, the GI50 with RPMI-8226 is 2.08 µM (inactive); in the experiment with OVCAR-3, 3.27 µM (inactive); with SR, 2.31 µM (inactive); in the experiment with U-251, 4.51 µM (inactive); in the experiment with DU-145 it was 7.76 µM (inactive); in the experiment with KM12, 3.2 µM (inactive). In addition, the GI50 with UACC-257 is 7.28 µM (inactive); in the experiment on BT-549, 8.15 µM (inactive); in the experiment with RXF 393, 4.54 µM (inactive); in the experiment on MDA-MB-435, 4.47 µM (inactive); in the experiment with MDA-N it was 3.41 µM (inactive); in the experiment on UACC-62, 6.85 µM (inactive). Moreover, in the experiment on CCRF-CEM, the GI50 is 1.46 µM (inactive).
